Experimental data taken from article PMC6387968, “An in vitro ADME and in vivo Pharmacokinetic Study of Novel TB-Active Decoquinate Derivatives” (Frontiers in Pharmacology, 2019).

Experiments:
Mtb H37Rv = tested on: Mtb H37Rv; design: method as in Beteck et al., 2018; conditions: in vitro, Mtb H37Rv; ref Beteck et al., 2018; cited from earlier work
[1] = tested on: Chinese hamster ovarian (CHO) cell-lines; conditions: cited from earlier work
physchem [2] = format: physicochemical; conditions: pH 7.4
Experimental: The plate was agitated for 2 h at 22°C and 500 rpm. […] The different layers were analyzed to obtain a logD value.

physchem [3] = format: physicochemical; conditions: 22 °C, pH 7.4, aqueous buffer, kinetic from dmso stock
Experimental: Stock solutions of each compound prepared in DMSO (10 mM) were spiked in duplicate into phosphate buffer at pH 7.4 (final concentration = 200 μM). Calibration samples were prepared by spiking individual compounds in DMSO at 11, 100, and 220 μM. These were used to generate a calibration curve to determine compound concentrations in the test samples. The samples were agitated for 2 h using a plate shaker (500 rpm, 22°C). Approximately 150 μL of the resulting supernatant was transferred to a 96-well analysis plate and the calibration and test samples were analyzed via HPLC with a diode array detector (Agilent 1200 Rapid Resolution HPLC, Agilent Technologies, Santa Clara, CA, United States) comprising a reverse-phase Gemini-C18 analytical column (5 μm, 50 mm × 2 mm; Phenomenex, Torrance, CA, United States). Mobile phases comprised 0.1% FA in water (A) and 0.1% FA in ACN (B). The run lasted 3 min and a gradient elution method was used (Table 1).

in vitro = in vitro ADME; conditions: for EH (hepatic extraction ratio) Human / EH (hepatic extraction ratio) Mouse: 0.1 M; for half-life at 0.1 M / microsomal CLint at 0.1 M: microsomes
Experimental: RMB041, -043, and -073 ([…]) prepared in DMSO were incubated separately with 530 μL mouse and human microsomes (0.4 mg/mL) at 37°C with the cofactor NADPH (1 mM). Compounds were assessed at 0 and 60 min. The reaction was stopped by the addition of ice-cold ACN containing IS (carbamazepine, 23.6 ng/mL). The samples were analyzed via LC-MS/MS using the instrumentation and conditions described above. The in vitro half-life, intrinsic clearance rate, and hepatic extraction ratio were predicted using results from this assay in the following equations ([Obach, 1999]). […] EH=Fu × CLint/QH+Fu × CLint Metabolic stability was assessed as the compound's depletion from a starting concentration of […] over 1 h in mouse and human microsomal fractions. The in vitro half-life can be predicted from this assay. The linear regression from a graph relating natural logarithmic percentage of the compound remaining versus the incubation time was used to calculate the half-life, CLint, and EH.

in vivo = assay: in vivo; design: species or system male C57BL/6 mice; conditions: for Vd / clearance / half-life / t1/2 / Cmax / Tmax: male, C57BL/6, mouse; for AUC: mouse
Experimental: Healthy male C57BL/6 mice, 12 to 16 weeks old, weighing approximately 30 g, were maintained at the animal facility of the University of Cape Town. Mice were fed a standard laboratory diet and water ad libitum. Mice were housed in 27 × 21 × 18 cm cages, under controlled environmental conditions (26 ± 1°C with 12-h light/dark cycles). Mice were acclimatized to their experimental environment for 4 days before the experiment started.
Clear suspensions of RMB041, -043, and -073 were prepared in […] hydroxypropyl methylcellulose and administered via oral gavage (20 mg/kg, volume = 200 μL, n = 3). Blood samples (20 μL) were collected on ice in heparinized microvials via tail bleeding at 0, 0.5, 1, 3, 5, 8, 10, 24, and 48 h following drug administration and stored at -80°C.
Solutions for IV injection (5 mg/kg) were prepared using a mixture of dimethyl acetamide, polyethylene glycol, and polypropylene glycol (1:3:6, v/v) and were injected into the penile vein (80 μL) following anesthesia of mice with intraperitoneal injection (IP) of ketamine/xylazine (75–100 mg/kg + 10 mg/kg; n = 3). Blood samples were collected on ice in heparinized microvials via tail bleeding at 0.083, 0.5, 1, 3, 5, 8, 10, 24, and 48 h following drug administration and stored at -80°C.
Mouse whole-blood samples (20 μL) were each treated with 100 μL ACN containing IS (carbamazepine, 1 μg/mL) to precipitate blood proteins, and were subjected to vigorous vortexing for 1 min and centrifugation at 5590 × g for 5 min. The supernatant layer containing compound (50 μL) was removed from each sample and added to the analysis plate. Thereafter, samples were dried down under nitrogen. A solution of ACN and water (1:1, v:v, 100 μL) was added to each well, and samples were analyzed via LC-MS/MS.
To determine compound concentrations in mouse whole-blood samples, seven calibration samples (range 0.980 to 4000 ng/mL), as well as low-, medium-, and high-concentration quality control (QC) samples (3, 1600, and 3200 ng/mL, respectively) were prepared in mouse blood and subjected to ACN precipitation as described above, in triplicate. Calibration, QC, and test samples were analyzed via LC-MS/MS. Calibration samples were used to plot standard curves, from which test sample concentrations were calculated via quadratic regression (weighting factor = 1/x).
A reverse-phase HPLC column (Gemini NX, C18, 2.6 μm, 50 × 2.1 mm, Phenomenex) was used to separate the compounds and IS (mobile phase B, 0.1% FA in ACN; mobile phase A, 0.1% FA in analytical-grade water). Auto-sampling was performed using an Agilent 1200 series auto-sampler. Data acquisition and evaluation were performed using the Analyst 1.6.2 software (Applied Biosystems, Foster City, CA, United States).
Plots of concentration against time were used to determine the maximal drug concentration (Cmax), time at which Cmax is reached (Tmax), area-under-the-curve from time zero to infinity (AUC0-∞), and the elimination half-life (t1/2). Using these values, the clearance, volume of distribution, and oral bioavailability (BA) were calculated using the non-compartmental analysis (NCA) software PK Solutions version 2.0 (Summit Research Services, Montrose, CO, United States).
The drug concentrations indicated in Figure 2–7 were used to calculate the PK parameters in Table 6 via NCA. Here, the area under the murine whole-blood concentration-time graph is divided into sequential trapezoids that are summed to determine the AUC, which is used to determine t1/2, apparent volume of distribution (Vd), clearance, and percentage BA.

SMILES	90% minimum inhibitory concentration (MIC90) (Mtb H37Rv) [µM]	IC50 [1] [µM]	logD (physchem [2])	solubility kinetic at 2 h (physchem [3]) [µM]	EH (hepatic extraction ratio) Human (in vitro)	EH (hepatic extraction ratio) Mouse (in vitro)	half-life at 0.1 M (in vitro; human) [h]	microsomal CLint at 0.1 M (in vitro; human) [µL/min/mg]	half-life at 0.1 M (in vitro; mouse) [h]	microsomal CLint at 0.1 M (in vitro; mouse) [µL/min/mg]	Vd (in vivo; iv, 5 mg/kg) [L/kg]	clearance (in vivo; iv, 5 mg/kg) [mL/min/kg]	half-life (in vivo; iv, 5 mg/kg) [h]	t1/2 (in vivo; iv, 5 mg/kg) [h]	Cmax (in vivo; po, 20 mg/kg) [µM]	Tmax (in vivo; po, 20 mg/kg) [h]	half-life (in vivo; po, 20 mg/kg) [h]	AUC (in vivo; iv, 5 mg/kg) [µmol·min/L]
CCCCCCCCCCOc1cc2c(=O)c(C(=O)NCCOCCO)cn(CC)c2cc1OCC [RMB041]	1.61	20	0.48	> 150	<0.43	<0.3	> 2.5	16	> 2.5	26.8	1.2 ± 0.03	0.385	62.3 ± 6.73	62.3 ± 6.7	5.4 ± 0.4	0.5	23.4 ± 2.5	29250.4 ± 309.0
CCCCCCCCCCOc1cc2c(=O)c(C(=O)NCCNCCO)cn(CC)c2cc1OCC [RMB043]	4.18	80	0.84	> 150	0.4	0.51	1.42	83	1	109	4.6 ± 1.6	1.18	8.6 ± 0.4	8.6 ± 0.4	5.6 ± 1.4	0.5	6.2 ± 0.8	10068.4 ± 127.8
CCCCCCCCCCOc1cc2c(=O)c(C(=O)NCCOCCO)cn(CCO)c2cc1OCC [RMB073]	1.88	33.9	0.36	> 150	<0.43	<0.3	> 2.5	7.78	> 2.5	15	3.9 ± 0.5	0.575	15.3 ± 3.2	15.3 ± 3.2	2 ± 0.03	0.5	11.6 ± 1.3	15940.0 ± 400.0
